ChEMBL document CHEMBL3885861, “Open TG-GATES”

Species: Rattus norvegicus
Test: Open TG-GATES - Regimen: Single
Assay type: toxicity, organism-based, Sprague-Dawley
Parameters: regimen Single, gender Male, age 6 weeks
Settings: in vivo, po, 300 mg/kg, route gavage, dose level High; for APTT / Bas / Eos / Fbg / Hb / Ht / Lym / MCH / MCHC / MCV / Mono / Neu / PT / Plat / RBC / Ret / WBC: tissue Blood; for KIDNEY_L / KIDNEY_R / KIDNEY_TOTAL: tissue Kidney; for LIVER: tissue Liver; for A/G / ALP / ALT / AST / BUN / CRE / Ca / Cl / DBIL / GLC / IP / K / LDH / Na / PL / RALB / TBIL / TC / TG / TP / gamma-GTP: tissue Plasma

## CCCNC(=O)NS(=O)(=O)c1ccc(Cl)cc1 [CHLORPROPAMIDE]
3 h
  TERMINAL_BW: 198 g
  APTT: 20.5 s
  Bas: 0%
  Eos: 0.6%
  Fbg: 309.8 mg/dL
  Hb: 14.6 g/dL
  Ht: 45.2%
  Lym: 74.8%
  MCH: 20.8 pg
  MCHC: 32.2%
  MCV: 64.6 fL
  Mono: 4.6%
  Neu: 18.6%
  PT: 15.7 s
  Plat: 121.4 x10_4/uL
  RBC: 700.6 x10_4/ul
  Ret: 9.7%
  WBC: 57 x10_2/uL
  KIDNEY_L: 0.8 g
  KIDNEY_R: 0.9 g
  KIDNEY_TOTAL: 1.7 g
  LIVER: 9.1 g
  A/G: 0.9
  ALP: 1404.2 IU/L
  ALT: 46.4 IU/L
  AST: 80.8 IU/L
  BUN: 12 mg/dL
  CRE: 0.2 mg/dL
  Ca: 10.8 mg/dL
  Cl: 105.4 meq/L
  DBIL: 0.008 mg/dL
  GLC: 147.4 mg/dL
  IP: 10.1 mg/dL
  K: 3.8 meq/L
  LDH: 86 IU/L
  Na: 143.8 meq/L
  PL: 126.8 mg/dL
  RALB: 2.8 g/dL
  TBIL: 0.018 mg/dL
  TC: 71.8 mg/dL
  TG: 60 mg/dL
  TP: 6 g/dL
  gamma-GTP: 1 IU/L
6 h
  TERMINAL_BW: 195 g
  APTT: 19.7 s
  Bas: 0%
  Eos: 1%
  Fbg: 344.4 mg/dL
  Hb: 14.6 g/dL
  Ht: 44.7%
  Lym: 72.2%
  MCH: 21.7 pg
  MCHC: 32.6%
  MCV: 66.6 fL
  Mono: 4.2%
  Neu: 21.4%
  PT: 16.1 s
  Plat: 105.8 x10_4/uL
  RBC: 670.8 x10_4/ul
  Ret: 9%
  WBC: 59.6 x10_2/uL
  KIDNEY_L: 0.9 g
  KIDNEY_R: 0.9 g
  KIDNEY_TOTAL: 1.8 g
  LIVER: 8 g
  A/G: 0.9
  ALP: 1619.2 IU/L
  ALT: 45.2 IU/L
  AST: 77.4 IU/L
  BUN: 14.8 mg/dL
  CRE: 0.2 mg/dL
  Ca: 10.9 mg/dL
  Cl: 106.2 meq/L
  DBIL: 0.004 mg/dL
  GLC: 108.4 mg/dL
  IP: 10.2 mg/dL
  K: 4.1 meq/L
  LDH: 82.6 IU/L
  Na: 143.2 meq/L
  PL: 135.8 mg/dL
  RALB: 2.8 g/dL
  TBIL: 0.018 mg/dL
  TC: 79.8 mg/dL
  TG: 46.6 mg/dL
  TP: 6 g/dL
  gamma-GTP: 1.2 IU/L
9 h
  TERMINAL_BW: 193.3 g
  APTT: 19.1 s
  Bas: 0.4%
  Eos: 0.8%
  Fbg: 391.6 mg/dL
  Hb: 13.4 g/dL
  Ht: 41.5%
  Lym: 72.2%
  MCH: 21.3 pg
  MCHC: 32.3%
  MCV: 65.8 fL
  Mono: 3%
  Neu: 23.2%
  PT: 16.8 s
  Plat: 118.3 x10_4/uL
  RBC: 629.8 x10_4/ul
  Ret: 8.9%
  WBC: 93.5 x10_2/uL
  KIDNEY_L: 0.9 g
  KIDNEY_R: 0.9 g
  KIDNEY_TOTAL: 1.7 g
  LIVER: 8.2 g
  A/G: 0.9
  ALP: 1339.6 IU/L
  ALT: 46.8 IU/L
  AST: 83.2 IU/L
  BUN: 15.4 mg/dL
  CRE: 0.2 mg/dL
  Ca: 10.9 mg/dL
  Cl: 106.4 meq/L
  DBIL: 0.008 mg/dL
  GLC: 96.8 mg/dL
  IP: 10.3 mg/dL
  K: 3.9 meq/L
  LDH: 85.2 IU/L
  Na: 143.6 meq/L
  PL: 127.8 mg/dL
  RALB: 2.7 g/dL
  TBIL: 0.022 mg/dL
  TC: 72.4 mg/dL
  TG: 50.6 mg/dL
  TP: 5.8 g/dL
  gamma-GTP: 1.2 IU/L
24 h
  TERMINAL_BW: 201.3 g
  APTT: 21.1 s
  Bas: 0%
  Eos: 1%
  Fbg: 308 mg/dL
  Hb: 13.2 g/dL
  Ht: 41.1%
  Lym: 81.2%
  MCH: 20.4 pg
  MCHC: 32.1%
  MCV: 63.5 fL
  Mono: 3%
  Neu: 13.6%
  PT: 16.2 s
  Plat: 114.9 x10_4/uL
  RBC: 647.2 x10_4/ul
  Ret: 7%
  WBC: 88.4 x10_2/uL
  KIDNEY_L: 0.9 g
  KIDNEY_R: 0.9 g
  KIDNEY_TOTAL: 1.8 g
  LIVER: 8.5 g
  A/G: 0.9
  ALP: 1944.4 IU/L
  ALT: 46.8 IU/L
  AST: 75 IU/L
  BUN: 15.4 mg/dL
  CRE: 0.2 mg/dL
  Ca: 10.8 mg/dL
  Cl: 108 meq/L
  DBIL: 0.008 mg/dL
  GLC: 185.4 mg/dL
  IP: 8.1 mg/dL
  K: 3.6 meq/L
  LDH: 74 IU/L
  Na: 142.2 meq/L
  PL: 129.6 mg/dL
  RALB: 2.7 g/dL
  TBIL: 0.022 mg/dL
  TC: 74.8 mg/dL
  TG: 45.4 mg/dL
  TP: 5.7 g/dL
  gamma-GTP: 1 IU/L
